Biological target: T1, Serine/threonine-protein kinase Chk1 (Homo sapiens, UniProt O14757)
T1 sequence (O14757 whole entry): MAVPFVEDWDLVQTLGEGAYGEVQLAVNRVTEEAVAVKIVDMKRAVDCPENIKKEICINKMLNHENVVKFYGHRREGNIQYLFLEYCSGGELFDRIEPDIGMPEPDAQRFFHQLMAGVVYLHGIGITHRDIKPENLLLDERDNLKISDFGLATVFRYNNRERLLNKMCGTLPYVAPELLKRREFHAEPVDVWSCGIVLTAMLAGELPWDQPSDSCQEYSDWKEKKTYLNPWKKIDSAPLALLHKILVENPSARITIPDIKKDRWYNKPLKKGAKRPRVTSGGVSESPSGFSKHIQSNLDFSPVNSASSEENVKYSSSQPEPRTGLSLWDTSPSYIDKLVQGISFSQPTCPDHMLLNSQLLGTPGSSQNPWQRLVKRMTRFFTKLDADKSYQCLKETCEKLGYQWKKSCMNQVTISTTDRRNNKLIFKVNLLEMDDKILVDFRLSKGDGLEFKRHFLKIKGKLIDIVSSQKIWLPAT
Experiment: Inhibition of checkpoint kinase-1

IC50 | Structure (SMILES)
4000 nM | N#Cc1ccc2c(c1)NC(=O)C2c1ncnc2cc(OCCCN3CCOCC3)ccc12 (configuration not stated)
450 nM | COc1ccc(Nc2nc(Nc3ccc(C(=O)O)cc3)ncc2Br)cc1

Source: ChEMBL document CHEMBL1137086, “Identification of compounds with nanomolar binding affinity for checkpoint kinase-1 using knowledge-based virtual screening” (J Med Chem, 2004)
